# Patent publication US20230340440A1, “GENETIC MANIPULATION METHOD IN BACTERIA” (University of Washington, priority 2022, published 2023)
# Assays:
# Assay type in all cases: cell-based, P. putida
# J3 promoter = assay: CRISPRa reporter gene activation, J3-BBa_J23117-mRFP; settings: for activation of mRFP: FIG. 4
# Experimental: Fluorescence measurements of reporter gene expression were carried out either by flow cytometry or plate reader. Single colonies from LB plates were inoculated in 500 µL of EZ-RDM (Teknova) supplemented with the appropriate antibiotics and grown in 96-deep-well plates at 30° C. with shaking overnight 225 rpm. For small-molecule induction, overnight cultures were diluted 100-fold into a new culture with appropriate antibiotics and inducers, then shaken overnight at 30° C., 225 rpm. For flow cytometry, overnight cultures were diluted 1:50 in Dulbecco’s phosphate-buffered saline (PBS) and analyzed on a MACSQuant VYB flow cytometer with the MACSQuantify 2.8 software (Miltenyi Biotec) using the methods and instruments settings as described (Dong et al., 2018. Synthetic CRISPR-Cas gene activators for transcriptional reprogramming in bacteria. Nat Commun 9, 2489). For plate reader measurements, 150 µL of overnight culture were transferred into a flat, clear-bottomed black 96-well plate. OD600 and fluorescence values were measured in a Biotek Synergy HTX plate reader and analyzed using the BioTek Gen5 2.07.17 software. For mRFP1 detection, the excitation wavelength was 540 nm and emission wavelength was 600 nm. For sfGFP detection, the excitation wavelength was 485 nm and the emission wavelength was 528 nm. Data were plotted using Prism (GraphPad).
# Next, the 20 bp target sequence that is recognized by the scRNA was examined. The experiments described above were performed with the J1 promoter, which contains an array of 20 base target sites. An alternative promoter, termed J3, that has a different set of 20 base target sites was tested. […] Compared to the J1 promoter, where a 4-fold activation (J106 target site) was observed, the fold-activation with the J3 promoter increased to 34-fold (J306 target site) (FIG. 2D). For both J1 and J3, the CRISPRa-induced expression levels were similar. The large difference in fold-activation results from an unexpected difference in basal expression levels. The basal expression of J3-mRFP is 11-fold lower than that of J1-mRFP, which leads to much higher fold-activation. […]
# With optimized expression levels and a delivery strategy for the CRISPRa system in P. putida in place, whether CRISPRa and CRISPRi can be used together to activate and repress multiple genes was tested. […] A dual scRNA/sgRNA cassette was inserted in this plasmid with a J306 scRNA for mRFP activation and an sgRNA that targets within the sfGFP open reading frame (ORF) for repression. […]
# J3-BBa_J23117-mvaES = assay: mevalonate pathway activation by CRISPRa, GC-MS; settings: 13-mvaES (pBBR1-GmR); relative to off-target scRNA; FIG. 7B
# Experimental: For mevalonate production experiments, the GC-MS method was adapted from prior methods (Pfleger et al., 2007. Microbial sensors for small molecules: Development of a mevalonate biosensor. Metab. Eng. 9, 30-38). Single colonies from LB plates were inoculated in 500 µL of EZ-RDM (Teknova) supplemented with the appropriate antibiotics and grown in 96-deep-well plates at 30° C. with shaking overnight at 225 rpm. Overnight cultures were subcultured by 1:100 dilution into 3 mL of EZ-RDM media with 1% glucose as the carbon source, supplemented with the appropriate antibiotics, and shaken at 225 rpm for 72 hours at 30° C. After 72 hours, 560 µL of cell suspension was acidified with 140 µL of 0.5 M HCl and vortexed. 700 µL ethyl acetate was added and samples were then vortexed again vigorously for 3 minutes and centrifuged at maximum speed in a benchtop centrifuge (15,000 rcf) for 10 min. […] The temperature cycle started at 80° C. and was followed by a gradient of 20° C./min to 260° C., a second gradient of 40° C./min to 300° C., and a hold at 300° C. for 2 min. m/z = 71, the second most abundant peak corresponding to mevalonolactone, was used for quantitation (Pfleger et al., 2007. Microbial sensors for small molecules: Development of a mevalonate biosensor. Metab. Eng. 9, 30-38). […] The calculated concentration was adjusted by the addition of HCl. […]
# J3-GTPCH, J3-PTPS, J3-SR = assay: biopterin pathway activation by CRISPRa, HPLC-MS; settings: J3-SR (pBBR1-GmR), relative to off-target scRNA, FIG. 6D
substance,measurement,setting,value
"J306: scRNA, SEQ ID NO: 95, target TTGTGTCCAGAACGCTCCGT, J3 and J1(306) promoters, template strand, 81 to TSS (chemistry not given here)",Fold-change,"J3 promoter; J3-mRFP (integrated), dual reporters genomically-integrated, FIG. 15A",3-fold
same,Fold-change,"J3 promoter; J3-mRFP (pBBR1-GmR), dual mRFP/sfGFP reporter plasmid-bourne, FIG. 13",41-fold
same,activation of mRFP,"J3 promoter; just a single scRNA delivered, weak mRFP/strong sfGFP dual-reporter plasmid",15 fold
same,activation of mRFP,"J3 promoter; simultaneous CRISPRa/CRISPRi, dual-reporter plasmid with sfGFP-repressing sgRNA",6.6 fold
same,"Fold-change, metabolite production",J3-BBa_J23117-mvaES,>40-fold
same,"Fold-change, metabolite production","J3-GTPCH, J3-PTPS, J3-SR",5-fold
